# Test results: ChEMBL document CHEMBL1201862, “PubChem BioAssay data set” (2004)
#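 Growth conditions: 96-well plates. Treatment: test compound, 48 hours, 5 concentrations. Analysis: linear interpolation between bracketing concentrations; unreached endpoints set to highest concentration. GI50: concentration for 50% inhibition of growth.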 The source made the active and inactive calls. No stated cut-off is given here; in the data, active = GI50 up to about 1.1 µM and inactive = higher.
# How the values were obtained:
# Test in all cases: inhibition of tumour cell growth, NCI panel, 48 h
# SF-295 = tested on: SF-295
# HCC 2998 = tested on: HCC 2998
# SR = tested on: SR
# NCI-H226 = tested on: NCI-H226
# 786-0 = tested on: 786-0
# T47D = tested on: T47D
# UO-31 = tested on: UO-31
# ACHN = tested on: ACHN
# COLO 205 = tested on: COLO 205
# RPMI-8226 = tested on: RPMI-8226
# A498 = tested on: A498
# HOP-92 = tested on: HOP-92
# Hs-578T = tested on: Hs-578T
# SW-620 = tested on: SW-620
# Malme-3M = tested on: Malme-3M
# SK-MEL-5 = tested on: SK-MEL-5
# MDA-MB-231 = tested on: MDA-MB-231
# MCF7 = tested on: MCF7
# NCI-H23 = tested on: NCI-H23
# K562 = tested on: K562
# UACC-257 = tested on: UACC-257
# NCI-H460 = tested on: NCI-H460
# SF-268 = tested on: SF-268
# U-251 = tested on: U-251
# TK-10 = tested on: TK-10
# UACC-62 = tested on: UACC-62
# RXF 393 = tested on: RXF 393
# IGROV-1 = tested on: IGROV-1
# SK-MEL-28 = tested on: SK-MEL-28
# EKVX = tested on: EKVX
# OVCAR-4 = tested on: OVCAR-4
# A549 = tested on: A549
# HT-29 = tested on: HT-29
# SK-OV-3 = tested on: SK-OV-3
# SNB-75 = tested on: SNB-75
# HCT-15 = tested on: HCT-15
# OVCAR-5 = tested on: OVCAR-5
# M14 = tested on: M14
# DU-145 = tested on: DU-145
# KM12 = tested on: KM12
# NCI/ADR-RES = tested on: NCI/ADR-RES
# HOP-62 = tested on: HOP-62
# HL-60 = tested on: HL-60
# CCRF-CEM = tested on: CCRF-CEM
# MOLT-4 = tested on: MOLT-4
# SN12C = tested on: SN12C
# SNB-19 = tested on: SNB-19
# OVCAR-8 = tested on: OVCAR-8
# MDA-MB-435 = tested on: MDA-MB-435
# HCT-116 = tested on: HCT-116
# OVCAR-3 = tested on: OVCAR-3
# MDA-N = tested on: MDA-N
# SK-MEL-2 = tested on: SK-MEL-2
# LOX IMVI = tested on: LOX IMVI
# PC-3 = tested on: PC-3
structure (smiles),measurement,setting,value
CC(NC1=NCCO1)c1cccs1 (centres undefined),GI50,SF-295,16.5 µM (inactive)
same,GI50,HCC 2998,17.7 µM (inactive)
same,GI50,SR,26.4 µM (inactive)
same,GI50,NCI-H226,46.8 µM (inactive)
same,GI50,786-0,17.1 µM (inactive)
same,GI50,T47D,36.4 µM (inactive)
same,GI50,UO-31,24.9 µM (inactive)
same,GI50,ACHN,74.6 µM (inactive)
same,GI50,COLO 205,19.5 µM (inactive)
same,GI50,RPMI-8226,23.7 µM (inactive)
same,GI50,A498,74 µM (inactive)
same,GI50,HOP-92,12.6 µM (inactive)
same,GI50,Hs-578T,17.8 µM (inactive)
same,GI50,SW-620,36.5 µM (inactive)
same,GI50,Malme-3M,21.4 µM (inactive)
same,GI50,SK-MEL-5,31.8 µM (inactive)
same,GI50,MDA-MB-231,76.7 µM (inactive)
same,GI50,MCF7,22.7 µM (inactive)
same,GI50,NCI-H23,50.2 µM (inactive)
same,GI50,K562,22.1 µM (inactive)
same,GI50,UACC-257,18.1 µM (inactive)
same,GI50,NCI-H460,28.8 µM (inactive)
same,GI50,SF-268,30.4 µM (inactive)
same,GI50,U-251,18.1 µM (inactive)
same,GI50,TK-10,> 100 µM (inactive)
same,GI50,UACC-62,16.5 µM (inactive)
same,GI50,RXF 393,> 10 µM (inactive)
same,GI50,IGROV-1,23.1 µM (inactive)
same,GI50,SK-MEL-28,23.1 µM (inactive)
same,GI50,EKVX,88.1 µM (inactive)
same,GI50,OVCAR-4,30.8 µM (inactive)
same,GI50,A549,52.8 µM (inactive)
same,GI50,HT-29,19.1 µM (inactive)
same,GI50,SK-OV-3,57.9 µM (inactive)
same,GI50,SNB-75,37.7 µM (inactive)
same,GI50,HCT-15,33.7 µM
same,GI50,OVCAR-5,69.5 µM (inactive)
same,GI50,M14,18.2 µM (inactive)
same,GI50,DU-145,87.9 µM (inactive)
same,GI50,KM12,15.7 µM (inactive)
same,GI50,NCI/ADR-RES,> 100 µM (inactive)
same,GI50,HOP-62,22.2 µM (inactive)
same,GI50,HL-60,17.9 µM (inactive)
same,GI50,CCRF-CEM,20 µM (inactive)
same,GI50,MOLT-4,22.1 µM (inactive)
same,GI50,SN12C,60.7 µM (inactive)
same,GI50,SNB-19,20.5 µM (inactive)
same,GI50,OVCAR-8,41 µM (inactive)
same,GI50,MDA-MB-435,19.7 µM (inactive)
same,GI50,HCT-116,20 µM (inactive)
CCC(C)[C@@H](NCc1ccccc1)[C@H](OCc1ccccc1)[C@@H]1COC(C)(C)O1 (some centres undefined),GI50,SF-295,21 µM (inactive)
same,GI50,SR,26.1 µM (inactive)
same,GI50,NCI-H226,14.8 µM (inactive)
same,GI50,786-0,18.8 µM (inactive)
same,GI50,UO-31,17.3 µM (inactive)
same,GI50,ACHN,20.9 µM (inactive)
same,GI50,OVCAR-3,28.7 µM (inactive)
same,GI50,COLO 205,15.9 µM (inactive)
same,GI50,RPMI-8226,15.8 µM (inactive)
same,GI50,HOP-92,10.4 µM (inactive)
same,GI50,Hs-578T,21.1 µM (inactive)
same,GI50,SW-620,18 µM (inactive)
same,GI50,Malme-3M,18.4 µM (inactive)
same,GI50,SK-MEL-5,12.8 µM (inactive)
same,GI50,MDA-MB-231,17.1 µM (inactive)
same,GI50,MCF7,21.2 µM (inactive)
same,GI50,NCI-H23,18.8 µM (inactive)
same,GI50,K562,20.3 µM (inactive)
same,GI50,UACC-257,18.7 µM (inactive)
same,GI50,MDA-N,32.1 µM (inactive)
same,GI50,SK-MEL-2,18.2 µM (inactive)
same,GI50,SF-268,22.8 µM (inactive)
same,GI50,U-251,19.2 µM (inactive)
same,GI50,TK-10,15.6 µM (inactive)
same,GI50,UACC-62,20.6 µM (inactive)
same,GI50,IGROV-1,17.6 µM (inactive)
same,GI50,LOX IMVI,18 µM (inactive)
same,GI50,SK-MEL-28,24.8 µM (inactive)
same,GI50,EKVX,20.5 µM (inactive)
same,GI50,OVCAR-4,28.8 µM (inactive)
same,GI50,A549,25.4 µM (inactive)
same,GI50,HT-29,10.7 µM (inactive)
same,GI50,SK-OV-3,30.5 µM (inactive)
same,GI50,SNB-75,32.6 µM (inactive)
same,GI50,HCT-15,15.7 µM
same,GI50,OVCAR-5,26.1 µM (inactive)
same,GI50,M14,29.2 µM (inactive)
same,GI50,DU-145,27.4 µM (inactive)
same,GI50,PC-3,28.6 µM (inactive)
same,GI50,KM12,18.8 µM (inactive)
same,GI50,NCI/ADR-RES,21.1 µM (inactive)
same,GI50,HOP-62,32.2 µM (inactive)
same,GI50,CCRF-CEM,27.1 µM (inactive)
same,GI50,MOLT-4,25.5 µM (inactive)
same,GI50,SN12C,22.6 µM (inactive)
same,GI50,SNB-19,17 µM (inactive)
same,GI50,OVCAR-8,20.5 µM (inactive)
same,GI50,MDA-MB-435,32.5 µM (inactive)
same,GI50,HCT-116,13 µM (inactive)
